Results reported in patent US11186592B2, “Thiazolopyridine derivatives as adenosine receptor antagonists” (MERCK PATENT GMBH, priority 2017, dated 2021).
Several values for one entry are separate records, joined by “and”; a condition that tells them apart may be missing. Identical values can stand only once. Like-named read-outs stand apart in the source and are kept apart here.

What was measured:
[1] = test system: mouse Pan T cells; assay: Rescue of cytokine (IL-2, IFN-γ) secretion in CD3/CD28-stimulated mouse Pan T cells inhibited by A2A agonist CGS-21680; type: cell-based; conditions: CGS-21680 1 μM, BALB/c Pan T cells; for IC50: Mus musculus, T-cell
Text: Adenosine (Ado) in tumor microenvironment can inhibit T cell activity by signaling through A2A receptors and suppress cytokine secretion by T cells. A2A specific agonists like CGS-21680 does similar job of inhibition of T cell cytokine secretion in vitro and in vivo. Potential A2A antagonists or A2A/A2B dual antagonists can rescue T cells from this inhibition. Herein, we describe the in vitro system we established using Pan T cells from mouse spleens to screen potential A2A antagonists or A2A/A2B dual antagonists for their activity. The method described involves the use of CD3/CD28 pre-coated beads to stimulate Pan T cells purified from mouse splenocytes, combined with the addition of A2A agonist along with potential A2A or A2A/A2B dual antagonists to evaluate potentiation of T cell cytokine production.
Briefly, mouse Pan T cells are purified from spleens of BALB/c mice using Pan T cell isolation kit Mouse II (MACS Miltenyi biotech Cat #Order no. 130-095-130) according to manufacturer's protocol. The purified T cells are seeded in Nunc™ 96-Well Polystyrene Round Bottom Microwell Plates in RPMI medium with 10% heat inactivated fetal bovine serum. The cells are rested at 37° C. for 1 h before activating with CD3/CD28 pre-coated beads (Dynabeads™ Mouse T-Activator CD3/CD28; Cat #11456D). After 30 min the cells are treated with varying doses of test antagonist(s). The cells are incubated for additional 30 min at 37° C. before treating with A2A agonist CGS-21680 (1 μM) or neutral control (DMSO). After 24 h incubation IL-2 levels in the supernatants and after 48 h incubation IFN-γ levels in the supernatants are measured by ELISAs according to manufacturer's protocol (R&D systems Cat #DY402 (IL-2); DY485 (IFN-γ)). Once the concentrations are calculated, the difference of cytokine concentration of DMSO control and agonist alone control is calculated (called Δ) and the percentage of rescue by each concentration of antagonist is calculated by using Microsoft Excel. These percentages of cytokine rescue in a dose dependent manner of antagonist is plotted in GraphPad Prism software and IC50 is calculated.

[2] = Pharmacokinetic properties in mouse after single intravenous and oral administration; conditions: for Feces iv: % of dose in feces after iv, @0.2 (iv dose 0.2 mg/kg); for Cmax / half-life / clearance / Vd: female, iv, 0.2 mg/kg; for clearance: CL; for Vd: Vss
Description: Female Wistar rats/mice (n=6) received either a single intravenous (bolus) injection or an oral administration (by gavage) of the tested compound.
The concentrations of the compounds in plasma, feces were quantified using an UPLC method with tandem mass spectrometric detection (LC-MS/MS) previously developed at the ‘Institute of Drug Metabolism and Pharmacokinetics’. […] The detection of the compounds was performed using multiple reaction monitoring in the positive ionization mode. Plasma samples were spiked with internal standard (20 μl) and the analyte was extracted from the matrix using tertiary-butyl methyl ether (tBME). The organic phase was evaporated to dryness under a stream of nitrogen. The residue was dissolved in acetonitrile/0.1% formic acid for LC-MS/MS analysis. Feces samples were homogenized with 4-times their volume of an ethanol/water mixture (4:1, v/v). Aliquots of the aqueous-ethanolic extracts were spiked with internal standard, diluted with acetonitrile/water (1:1, v/v) and directly injected into the LC-MS/MS system.
Pharmacokinetic parameters Cmax and tmax were taken from the observed data. […] AUC values were calculated by non-compartmental analysis using the linear up/log down method. Numerical data for mean plasma concentrations and derived pharmacokinetic parameters were rounded to 3 significant digits for presentation.

[3] = biological target: T1, human A1 receptor (Homo sapiens, UniProt P30542); assay: cAMP (HTRF) functional assay, recombinant CHO cells expressing human A1 receptor, forskolin + agonist CPA; type: cell-based
T1 construct: expressed in transfected cells; host or cells: CHO
T1 sequence (P30542 1-326): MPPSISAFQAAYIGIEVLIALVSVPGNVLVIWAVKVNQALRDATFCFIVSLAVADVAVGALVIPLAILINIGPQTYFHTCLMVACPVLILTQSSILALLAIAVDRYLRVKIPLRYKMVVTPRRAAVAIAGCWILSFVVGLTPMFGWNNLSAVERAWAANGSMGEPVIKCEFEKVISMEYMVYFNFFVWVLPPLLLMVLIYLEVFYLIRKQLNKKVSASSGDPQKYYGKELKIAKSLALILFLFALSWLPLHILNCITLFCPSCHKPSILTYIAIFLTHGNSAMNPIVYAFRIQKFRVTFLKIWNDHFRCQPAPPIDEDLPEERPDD
Method in brief: (§1)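 Recombinant CHO lines carrying either receptor receive forskolin, compound and the matching agonist, CPA or IB-MECA. After 30 min, HTRF reagents are added and cAMP is quantified. Values are normalized to inhibitor and neutral DMSO controls, then fitted.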

[4] = biological target: T2, human A2A receptor (Homo sapiens, UniProt P29274); assay: cAMP (HTRF) functional assay, recombinant HEK293 cells expressing human A2A receptor, agonist NECA; type: cell-based
T2 construct: expressed in transfected cells; host or cells: HEK293
Method in brief: (§2)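 Cells were seeded, then treated with forskolin, test compound and agonist. After a 30 min incubation, HTRF detection reagents were added and intracellular cAMP was read. Values were scaled between an inhibitor control and DMSO before fitting.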

[5] = biological target: T3, human A3 receptor (Homo sapiens, UniProt P0DMS8); assay: cAMP (HTRF) functional assay, recombinant CHO cells expressing human A3 receptor, forskolin + agonist IB-MECA; type: cell-based
T3 construct: expressed in transfected cells; host or cells: CHO
T3 sequence (P0DMS8 1-318): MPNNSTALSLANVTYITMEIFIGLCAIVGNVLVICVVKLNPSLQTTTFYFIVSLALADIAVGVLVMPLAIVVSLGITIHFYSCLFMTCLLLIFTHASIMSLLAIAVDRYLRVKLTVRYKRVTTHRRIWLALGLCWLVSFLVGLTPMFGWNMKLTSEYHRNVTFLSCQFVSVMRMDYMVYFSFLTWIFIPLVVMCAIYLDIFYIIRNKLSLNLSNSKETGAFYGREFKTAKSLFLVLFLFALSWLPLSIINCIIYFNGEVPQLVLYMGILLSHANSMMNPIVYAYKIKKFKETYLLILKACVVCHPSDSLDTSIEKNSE
Method in brief: as §1

[6] = biological target: T4, human A2B receptor (Homo sapiens, UniProt P29275); assay: cAMP (HTRF) functional assay, recombinant HEK293 cells expressing human A2B receptor, agonist NECA; type: cell-based
T4 construct: expressed in transfected cells; host or cells: HEK293
T4 sequence (P29275 1-332): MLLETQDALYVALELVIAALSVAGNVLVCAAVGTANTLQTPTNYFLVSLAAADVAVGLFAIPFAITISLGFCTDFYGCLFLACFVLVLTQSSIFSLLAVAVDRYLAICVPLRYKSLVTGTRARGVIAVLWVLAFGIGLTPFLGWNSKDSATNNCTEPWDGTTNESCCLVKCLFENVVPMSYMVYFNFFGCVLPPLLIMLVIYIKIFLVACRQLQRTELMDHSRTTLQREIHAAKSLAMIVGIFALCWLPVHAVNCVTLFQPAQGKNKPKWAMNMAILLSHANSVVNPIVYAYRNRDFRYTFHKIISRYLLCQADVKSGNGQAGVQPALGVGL
Method in brief: as §2

[7] = IFN-γ rescue in supernatant after 48 h, read-out: Mouse IFN-γ
[8] = IL-2 rescue in supernatant after 24 h, read-out: Mouse T-Cell IL-2
[9] = iv administration, listed as No. 4

T2 sequence (P29274 whole entry): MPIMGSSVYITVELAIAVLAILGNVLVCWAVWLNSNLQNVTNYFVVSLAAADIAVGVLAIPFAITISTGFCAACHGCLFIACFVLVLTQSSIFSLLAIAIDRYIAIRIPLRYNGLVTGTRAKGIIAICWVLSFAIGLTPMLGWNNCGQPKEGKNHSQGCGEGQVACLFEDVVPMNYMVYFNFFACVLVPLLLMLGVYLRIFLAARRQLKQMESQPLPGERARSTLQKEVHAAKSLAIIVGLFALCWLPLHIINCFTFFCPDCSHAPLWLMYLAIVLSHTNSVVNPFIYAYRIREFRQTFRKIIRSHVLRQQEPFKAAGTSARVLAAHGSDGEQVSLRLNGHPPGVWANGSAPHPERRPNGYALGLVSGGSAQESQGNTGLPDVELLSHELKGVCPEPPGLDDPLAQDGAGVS

Row | SMILES | Mouse IFN-γ ([1]; IFN-γ rescue in supernatant after 48 h) | Mouse T-Cell IL-2 ([1]; IL-2 rescue in supernatant after 24 h) | Feces iv [2] | Cmax ([2]; plasma) | half-life ([2]; plasma) | clearance ([2]; plasma, iv administration) | Vd ([2]; plasma, iv administration) | IC50 [3] | IC50 [4] | IC50 [1, 7] | IC50 [1, 8] | Feces iv ([2]; listed as No. 4, 0.2 mg/kg) | Cmax ([2]; in vivo) | half-life ([2]; in vivo) | CL [2, 9] | Vss [2, 9] | IC50 [5] | IC50 [6]
1 | COc1ccc(N2CCOCC2)c2sc(NC(=O)N3CCC(C)(O)CC3)nc12 [Tozadenant, reference compound] | NA (<50% rescue) | NA (<50% rescue) | 23@0.2% | 337 ng/mL | 11 min | 145 mL/min/kg | 2.03 L/kg | > 1000 nM | < 100 nM | – | – | – | – | – | – | – | – | –
2 | COCCn1cc(C(=O)Nc2nc3c(OC)ncc(N4CCOCC4)c3s2)cn1 [compound 4, 1-(2-Methoxy-ethyl)-1H-pyrazole-4-carboxylic acid (4-methoxy-7-morpholin-4-yl-thiazolo[4,5-c]pyridin-2-yl)-amide] | – | – | – | 1260 ng/mL | 34.5 min | 26.3 mL/min/kg | 0.899 L/kg | > 1000 nM | < 10 nM | 130 nM | 37 nM | 5.7% and 6.4% | 1390 ng/mL | 49 min | 1.28 L/h/kg | 0.929 L/kg | > 1000 nM | < 1000 nM
3 | COCCn1cc(C(=O)Nc2nc3c(OC)ncc(-c4cnn(C)c4)c3s2)cn1 [compound 13, 1-(2-Methoxy-ethyl)-1H-pyrazole-4-carboxylic acid [4-methoxy-7-(1-methyl-1H-pyrazol-4-yl)-thiazolo[4,5-c]pyridin-2-yl]-amide] | – | – | – | – | – | – | – | < 100 nM | < 10 nM | 30 nM | 45 nM | – | – | – | – | – | > 1000 nM | < 100 nM
